Laboratory results as given in patent US20180161449A1 (OCULIS EHF, priority 2015, published 2018).

What was measured:
[1] = type: physicochemical
Description: An excess amount of drug was added to aqueous solutions containing up to 20% (w/v) cyclodextrin. The solutions were sonicated at 40-50° C. for 45-60 minutes in sealed glass vials, and then allowed to cool to room temperature (22-23° C.). Small amount of solid drug was then added to each vial, the vial resealed and allowed to equilibrate under constant agitation and protected from light for 7 days at room temperature. When the solutions had reached equilibrium, they were filtered through a 0.45 μm membrane filter and analyzed by high pressure liquid chromatography. […] The complexation efficiency (CE) was determined from the slope of phase-solubility diagrams (plots of total solubility of the drug versus total CD concentration in mol/l) where S0 is the intrinsic solubility of the drug:
The mobile phase consisted of acetonitrile, methanol and water (60:20:20), the flow rate was 1 ml/min, the column oven temperature was 80° C. and the detection wavelength was 205 nm.

[2] = pure water at room temperature; cited from earlier work

CE (complexation efficiency) [1]	Solubility in the presence of 5% (w/v) cyclodextrin [1] [µg/mL]	Molecule	Solubility in the presence of 15% (w/v) cyclodextrin [1] [µg/mL]	Solubility of the cyclodextrin in pure water [2]
0.031	84	2-Hydroxypropyl-α-cyclodextrin	460	–
0.0011	–	2-Hydroxypropyl-γ-cyclodextrin	–	–
0.030	–	OC[C@H]1O[C@@H]2O[C@H]3[C@H](O)[C@@H](O)[C@@H](O[C@H]4[C@H](O)[C@@H](O)[C@@H](O[C@H]5[C@H](O)[C@@H](O)[C@@H](O[C@H]6[C@H](O)[C@@H](O)[C@@H](O[C@H]7[C@H](O)[C@@H](O)[C@@H](O[C@H]8[C@H](O)[C@@H](O)[C@@H](O[C@H]1[C@H](O)[C@H]2O)O[C@@H]8CO)O[C@@H]7CO)O[C@@H]6CO)O[C@@H]5CO)O[C@@H]4CO)O[C@@H]3CO [β-Cyclodextrin]	–	2 % (w/v)
0.0049	–	OC[C@H]1O[C@@H]2O[C@H]3[C@H](O)[C@@H](O)[C@@H](O[C@H]4[C@H](O)[C@@H](O)[C@@H](O[C@H]5[C@H](O)[C@@H](O)[C@@H](O[C@H]6[C@H](O)[C@@H](O)[C@@H](O[C@H]7[C@H](O)[C@@H](O)[C@@H](O[C@H]8[C@H](O)[C@@H](O)[C@@H](O[C@H]9[C@H](O)[C@@H](O)[C@@H](O[C@H]1[C@H](O)[C@H]2O)O[C@@H]9CO)O[C@@H]8CO)O[C@@H]7CO)O[C@@H]6CO)O[C@@H]5CO)O[C@@H]4CO)O[C@@H]3CO [γ-Cyclodextrin]	–	–
0.053	130	Randomly methylated β-cyclodextrin	–	–

Molecule	CE (complexation efficiency) [1]	Solubility in the presence of 5% (w/v) cyclodextrin [1] [µg/mL]	Solubility in the presence of 15% (w/v) cyclodextrin [1] [µg/mL]	Solubility of the cyclodextrin in pure water [2]
OC[C@H]1O[C@@H]2O[C@H]3[C@H](O)[C@@H](O)[C@@H](O[C@H]4[C@H](O)[C@@H](O)[C@@H](O[C@H]5[C@H](O)[C@@H](O)[C@@H](O[C@H]6[C@H](O)[C@@H](O)[C@@H](O[C@H]7[C@H](O)[C@@H](O)[C@@H](O[C@H]1[C@H](O)[C@H]2O)O[C@@H]7CO)O[C@@H]6CO)O[C@@H]5CO)O[C@@H]4CO)O[C@@H]3CO [α-Cyclodextrin]	0.54	–	4200	–
